{
  "source": "patent US20040082635A1",
  "about": "“Fused cyclic compounds and medicinal use thereof” (priority 2001, published 2004)",
  "note": "Counter-ions that a name gives are not always drawn.",
  "data": [
    {"target": "T1, HCV polymerase (Hepatitis C virus genotype 1b, UniProt P26663)", "T1 construct": "a region encoding NS5B (591 amino acids; J Virol 1991 Mar, 65(3), 1105-13) was amplified by PCR; 6 His (N); made in house; host or cells: Escherichia coli", "T1 sequence (P26663 2420-3010)": "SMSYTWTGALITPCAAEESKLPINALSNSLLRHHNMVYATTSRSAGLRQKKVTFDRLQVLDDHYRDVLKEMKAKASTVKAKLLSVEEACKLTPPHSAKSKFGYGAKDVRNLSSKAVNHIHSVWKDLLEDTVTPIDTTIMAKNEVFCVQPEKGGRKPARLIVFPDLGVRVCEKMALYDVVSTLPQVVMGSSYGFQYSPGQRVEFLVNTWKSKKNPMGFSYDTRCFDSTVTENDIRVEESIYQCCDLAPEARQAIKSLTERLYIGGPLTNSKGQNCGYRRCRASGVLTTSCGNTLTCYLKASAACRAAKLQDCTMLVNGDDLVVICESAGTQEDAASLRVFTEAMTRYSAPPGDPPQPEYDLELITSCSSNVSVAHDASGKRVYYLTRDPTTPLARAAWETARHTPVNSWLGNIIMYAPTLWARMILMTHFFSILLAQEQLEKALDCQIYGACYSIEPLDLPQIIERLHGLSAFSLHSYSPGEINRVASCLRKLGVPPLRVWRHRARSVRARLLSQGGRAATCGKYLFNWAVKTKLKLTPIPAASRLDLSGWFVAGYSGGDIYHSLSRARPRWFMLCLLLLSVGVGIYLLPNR", "test": "biochemical", "conditions": "read-out: HCV polymerase inhibitory activity IC50", "units": {"IC50": "nM"}, "values": [
      {"smiles": "O=C(O)c1ccc2c(c1)nc(-c1ccc(Oc3ccc(OCc4ccccc4)cc3)cc1)n2C1CCCCC1", "note": "[Example 132, 2-[4-(4-benzyloxyphenoxy)phenyl]-1-cyclohexylbenzimidazole-5-carboxylic acid]", "IC50": 55},
      {"smiles": "CCNC(=O)Nc1ccc(-c2ccc(Cl)cc2)c(COc2ccc(-c3nc4cc(C(=O)O)ccc4n3C3CCCCC3)c(F)c2)c1", "note": "[Example 394, 2-{4-[2-(4-chlorophenyl)-5-{(ethylcarbamoyl)amino}benzyloxy]-2-fluorophenyl}-1-cyclohexylbenzimidazole-5-carboxylic acid hydrochloride]", "IC50": 19},
      {"smiles": "O=C(O)c1ccc2c(c1)nc(-c1ccc(OCc3sc(CN4CCC(O)CC4)nc3-c3ccc(F)cc3)cc1)n2C1CCCCC1", "note": "[Example 427, 2-{4-[{4-(4-fluorophenyl)-2-(4-hydroxypiperidin-1-ylmethyl)thiazol-5-yl}methoxy]phenyl}-1-cyclohexylbenzimidazole-5-carboxylic acid dihydrochloride]", "IC50": 20},
      {"smiles": "CC(=O)c1ccc(-c2ccc(Cl)cc2)c(COc2ccc(-c3nc4cc(C(=O)O)ccc4n3C3CCCCC3)cc2)c1", "note": "[Example 342, 2-{4-[5-acetyl-2-(4-chlorophenyl)benzyloxy]phenyl}-1-cyclohexylbenzimidazole-5-carboxylic acid hydrochloride]", "IC50": 15},
      {"smiles": "CN(C)C(=O)COc1cccc(Oc2ccc(-c3nc4cc(C(=O)O)ccc4n3C3CCCCC3)cc2)c1", "note": "[Example 196, 1-cyclohexyl-2-{4-[3-(dimethylcarbamoylmethoxy)phenoxy]phenyl}benzimidazole-5-carboxylic acid]", "IC50": 200},
      {"smiles": "CC(C)NC(=O)c1ccc(-c2ccc(Cl)cc2)c(COc2ccc(-c3nc4cc(C(=O)O)ccc4n3C3CCCC3)c(F)c2)c1", "note": "[Example 412, 2-{4-[2-(4-chlorophenyl)-5-(isopropylcarbamoyl)benzyloxy]-2-fluorophenyl}-1-cyclopentylbenzimidazole-5-carboxylic acid hydrochloride]", "IC50": 19},
      {"smiles": "O=C(O)c1ccc2c(c1)nc(-c1ccc(OCc3sc(C(=O)NCCO)nc3-c3ccc(F)cc3)cc1F)n2C1CCCCC1", "note": "[Example 430, 2-{4-[{4-(4-fluorophenyl)-2-{(2-hydroxyethyl)carbamoyl}thiazol-5-yl}methoxy]-2-fluorophenyl}-1-cyclohexylbenzimidazole-5-carboxylic acid hydrochloride]", "IC50": 17},
      {"smiles": "O=C(O)c1ccc2c(c1)nc(-c1ccc(OCc3cc(N4CCCCC4=O)ccc3-c3ccc(Cl)cc3)cc1F)n2C1CCCCC1", "note": "[Example 371, 2-{4-[2-(4-chlorophenyl)-5-(2-oxopiperidin-1-yl)benzyloxy]-2-fluorophenyl}-1-cyclohexylbenzimidazole-5-carboxylic acid hydrochloride]", "IC50": 15},
      {"smiles": "O=C(O)c1ccc(COc2ccc(-c3nc4cc(C(=O)O)ccc4n3C3CCCC3)cc2)cc1", "note": "[Example 44, 2-[4-(4-carboxybenzyloxy)phenyl]-1-cyclopentylbenzimidazole-5-carboxylic acid]", "IC50": 950},
      {"smiles": "CC(C)NC(=O)c1ccc(-c2ccc(F)c(F)c2)c(COc2ccc(-c3nc4cc(C(=O)O)ccc4n3C3CCCCC3)c(F)c2)c1", "note": "[Example 396, 2-{4-[2-(3,4-difluorophenyl)-5-(isopropylcarbamoyl)benzyloxy]-2-fluorophenyl}-1-cyclohexylbenzimidazole-5-carboxylic acid]", "IC50": 25},
      {"smiles": "O=C(O)c1ccc2c(c1)nc(-c1ccc(Oc3cccc(OCc4ccc(Cl)cc4)c3)cc1)n2C1CCCCC1", "note": "[Example 201, 2-{4-[3-(4-chlorobenzyloxy)phenoxy]phenyl}-1-cyclohexylbenzimidazole-5-carboxylic acid]", "IC50": 140},
      {"smiles": "CC1(C)COC(c2ccc(-c3ccc(Cl)cc3)c(COc3ccc(-c4nc5cc(C(=O)O)ccc5n4C4CCCCC4)cc3)c2)=N1", "note": "[Example 353, 2-{4-[2-(4-chlorophenyl)-5-(4,4-dimethyl-2-oxazolin-2-yl)benzyloxy]phenyl}-1-cyclohexylbenzimidazole-5-carboxylic acid dihydrochloride]", "IC50": 23},
      {"smiles": "CC(C)NC(=O)c1ccc(-c2ccc(Cl)cc2)c(COc2ccc(-c3nc4cc(C(=O)O)ccc4n3C3CCCC3)cc2)c1", "note": "[Example 413, 2-{4-[2-(4-chlorophenyl)-5-(isopropylcarbamoyl)benzyloxy]phenyl}-1-cyclopentylbenzimidazole-5-carboxylic acid hydrochloride]", "IC50": 26},
      {"smiles": "CCN(C)C(=O)c1ccc(-c2ccc(Cl)cc2)c(COc2ccc(-c3nc4cc(C(=O)O)ccc4n3C3CCCCC3)c(F)c2)c1", "note": "[Example 384, 2-{4-[2-(4-chlorophenyl)-5-(N-ethyl-N-methylcarbamoyl)benzyloxy]-2-fluorophenyl}-1-cyclohexylbenzimidazole-5-carboxylic acid hydrochloride]", "IC50": 16},
      {"smiles": "O=C(O)c1ccc(C(Oc2ccc(-c3nc4cc(C(=O)O)ccc4n3C3CCCCC3)c(F)c2)c2ccc(F)cc2)cc1", "note": "(stereo not shown) [Example 327, 2-{4-[(4-fluorophenyl)(4-carboxyphenyl)methoxy]-2-fluorophenyl}-1-cyclohexylbenzimidazole-5-carboxylic acid]", "IC50": 19},
      {"smiles": "O=C(O)c1ccc2c(c1)nc(-c1ccc(OCc3cc(NC4=NCCO4)ccc3-c3ccc(Cl)cc3)cc1F)n2C1CCCCC1", "note": "[Example 425, 2-{4-[2-(4-chlorophenyl)-5-(2-oxazolin-2-ylamino)benzyloxy]-2-fluorophenyl}-1-cyclohexylbenzimidazole-5-carboxylic acid dihydrochloride]", "IC50": 26},
      {"smiles": "CC(=O)N1CCC(COc2ccccc2Oc2ccc(-c3nc4cc(C(=O)O)ccc4n3C3CCCCC3)cc2)CC1", "note": "[Example 175, 2-{4-[2-{(1-acetyl-4-piperidyl)methoxy}phenoxy]phenyl}-1-cyclohexylbenzimidazole-5-carboxylic acid]", "IC50": 290},
      {"smiles": "O=C(O)c1ccc2c(c1)nc(-c1ccc(OCc3ccccc3)cc1)n2C1CCCC1", "note": "[Example 12, 2-(4-benzyloxyphenyl)-1-cyclopentylbenzimidazole-5-carboxylic acid]", "IC50": 600},
      {"smiles": "CC(C)NC(=O)c1cccc(-c2ccc(Cl)cc2)c1COc1ccc(-c2nc3cc(C(=O)O)ccc3n2C2CCCCC2)c(F)c1", "note": "[Example 448, 2-[4-{2-(4-chlorophenyl)-6-(isopropylaminocarbonyl)benzyloxy}-2-fluorophenyl]-1-cyclohexylbenzimidazole-5-carboxylic acid hydrochloride]", "IC50": 200},
      {"smiles": "O=C(O)c1ccc2c(c1)nc(-c1ccc(COc3ccccc3-c3ccccc3)o1)n2C1CCCCC1", "note": "[Example 253, 2-[2-(2-biphenylyloxymethyl)-5-furyl]-1-cyclohexylbenzimidazole-5-carboxylic acid]", "IC50": 650},
      {"smiles": "O=C(O)c1ccc(-c2ccc(Cl)cc2)c(COc2ccc(-c3nc4cc(C(=O)O)ccc4n3C3CCCCC3)cc2)c1", "note": "[Example 189, 2-{4-[3-carboxy-6-(4-chlorophenyl)benzyloxy]phenyl}-1-cyclohexylbenzimidazole-5-carboxylic acid]", "IC50": 17},
      {"smiles": "COCCOc1ccc(-c2ccc(Cl)cc2)c(COc2ccc(-c3nc4cc(C(=O)O)ccc4n3C3CCCCC3)cc2)c1", "note": "[Example 344, 2-{4-[2-(4-chlorophenyl)-5-(2-methoxyethoxy)benzyloxy]phenyl}-1-cyclohexylbenzimidazole-5-carboxylic acid hydrochloride]", "IC50": 16}
    ]}
  ]
}
